Consider 3 molecules from patent US10064876B2, “Bile acid receptor agonism for treating addiction” (Vanderbilt University, priority 2015, dated 2018).

The subject of series [1] is C57BL/6J mice. Description: cocaine-induced locomotion in OCA-treated mice. The series is classed as in vivo, mouse. The conditions noted are these: OCA 10 mg/kg orally, chronic, vs vehicle. The procedure: CPP was performed as previously described, with modifications (Graham D L, et al. (2013). Mol Psychiatry. 18(9):961-962). Briefly, mice were weighed and then acclimated to the testing room for at least 20 minutes prior to testing each day. During the first phase (pre-conditioning, day 1), mice were placed on the grid floor side of a two chamber apparatus. For 30 min, the mice had free access to both sides of the apparatus, which each contained their own distinct visual and tactile cues. During the second phase (conditioning, days 2-9), on alternate days mice were restricted to one side or the other of the apparatus for 30 min by use of a dividing door. Just prior to being placed in the chamber, each mouse was given an injection of either cocaine (20 mg/kg, i.p.) or saline (i.p.). […] Only the first 20 minutes of pre-conditioning and post-conditioning was used in the calculation of % CPP. […] Following 20 minutes of acclimation to the testing room, mice were initially placed in open field chambers for 60 min and ambulatory distance was recorded. […] Finally, mice were removed again and injected with cocaine (20 mg/kg, i.p.) before being placed back in the chamber for an additional 120 minutes. […] Jellies were composed of gelatin (10% w/v), sucralose (18.5% w/v), artificial strawberry flavoring (8% v/v); beta cyclodextrin (2% w/v) in water. […]

The conditions of series [2]: phase III clinical trial, hepatic steatosis; cited from earlier work.
The test system of series [3] is AMPA receptor-mediated excitatory post-synaptic currents (EPSCs) in NAc medium spiny neurons. The series can be described thus: whole-cell electrophysiology, EPSC amplitude in ex vivo brain slices. The format is cell-based, mouse. The conditions noted are these: 10 μM OCA (FIG. 29B legend), perfused 10 min, holding at −70 mV, 50 μM picrotoxin. The procedure: Ex vivo mouse sagittal brain slices were prepared as previously described (Grueter, B. A., et al. Nat Neurosci 13:1519-1525 (2010)). Briefly, mice were acutely anesthetized using isoflurane and sacrificed by rapid decapitation. Brains were submerged in ice-cold sucrose dissecting solution (80 mM NaCl, 2.5 mM KCl, 7 mM MgCl2, 0.5 mM CaCl2, 1.25 mM NaH2PO4, 25 mM NaHCO3, 75 mM sucrose, and 25 mM glucose) and 250 μm thick slices were cut using the Leica 200VT Vibratome. Slices were allowed to recover for 10-15 min at 35° C. in an N-methyl D-glucamine (NMDG) based recovery solution (2.5 mM KCl, 20 mM HEPES, 1.2 mM NaH2PO4, 25 mM glucose, 93 mM NMDG, 30 mM NaHCO3, 5 mM sodium ascorbate, 3 mM sodium pyruvate, 10 mM MgSO4, and 0.5 mM CaCl2) before being transferred to a room temperature ACSF holding chamber for one hour prior to use. ASCF used for holding chamber and recordings contained 120 mM NaCl, 2.5 mM KCL, 1.5 mM MgCl2, 2.5 mM CaCl2, 1 mM NaH2PO4, 25 mM NaHCO3, and 10 mM glucose. […] Evoked responses were elicited by electrical stimulation via the Iso-flex stimulation isolator and recorded using the Axopatch Multiclamp 700B amplifier and Axon Digidata 1550 low-noise data acquisition digitizer. […] Peak EPSC amplitude was measured for the duration of the experiment and normalized to the first 10 min. […]

Series [4] can be described thus: body weight during chronic OCA treatment. The format is in vivo, mouse. The conditions noted are these: OCA 10 mg/kg orally vs vehicle, throughout the 4-week study. The source says:
Jellies were composed of gelatin (10% w/v), sucralose (18.5% w/v), artificial strawberry flavoring (8% v/v); beta cyclodextrin (2% w/v) in water. […] Jellies containing vehicle contained the same amount of beta cyclodextrin. Mice were given jellies by voluntary oral administration six days per week for four weeks. They were given the jellies between 3 pm and 6 pm by placing each mouse into an open field chamber containing the jelly. To ensure that mice consumed the jellies consistently, all mice were initially trained to eat jellies without drug for 5 days prior to drug/vehicle jelly administration. Mice in this group underwent behavioral testing for cocaine conditioned place preference after 2 weeks of chronic drug administration. During this time, drug administrations were continued until sacrifice.

The test system of series [5] is C57BL/6J mice. Description: cocaine conditioned place preference (CPP) in mice under chronic OCA. Particulars: OCA 10 mg/kg orally six days a week for four weeks vs vehicle, CPP started after 2 weeks, cocaine 20 mg/kg i.p. The series is classed as in vivo, mouse. How it is done:
CPP was performed as previously described, with modifications (Graham D L, et al. (2013). Mol Psychiatry. 18(9):961-962). Briefly, mice were weighed and then acclimated to the testing room for at least 20 minutes prior to testing each day. During the first phase (pre-conditioning, day 1), mice were placed on the grid floor side of a two chamber apparatus. For 30 min, the mice had free access to both sides of the apparatus, which each contained their own distinct visual and tactile cues. During the second phase (conditioning, days 2-9), on alternate days mice were restricted to one side or the other of the apparatus for 30 min by use of a dividing door. […] During this time, the mouse's locomotor activity was measured by infrared sensors and used to determine cocaine-induced locomotor sensitization. […] Thus mice were given full access to both compartments and their time spent on each side was measured. % CPP was calculated as the time spent on the cocaine-paired side between post-conditioning minus the time spent on the cocaine-paired side during pre-conditioning divided by the time spent on the saline-paired side during pre-conditioning. […] Locomotor sensitization to cocaine was determined by the ambulatory distance on days when mice received cocaine during the conditioning phase of CPP. […]

The test system of the next series is FXR. Particulars: Sayin 2013; Li 2013; cited from earlier work.
The test system of a further series is Lipoprotein lipase (Lpl). Description: hepatic gene expression by RNA-seq. The format is in vivo, mouse. The conditions noted are these: liver. How it is done: The transcriptional sequencing was implemented with modifications of the standard Illumina methods (Bentley, D. R. et al. Nature 456, 53-59 (2008)). Sequencing reactions were performed using the Illumina HiSeq (v3 chemistry). Initial QC quantification of the extracted total RNA was done by using Qubit Fluorometer (Invitrogen). Agilent 2100 Bioanalyzer was used to check the quality of the extracted RNA from both the samples. About 30 ng of total RNA was amplified using the NuGEN Technologies Ovation RNA amplification kit optimized for RNA sequencing. The output is double-stranded complementary DNA (cDNA) that was sheared using the Covaris instrument to an average insert size of 300 bp. The sheared DNA entered the standard Illumina TruSeq library preparation protocol at the standard end-repair step. […] Following LM-PCR, the samples were purified and assessed for quality using the Agilent Bioanalyzer. Final quantitation was performed using the KAPA Biosystems Kapa Library Quant kit. […]
Multiple stages of quality control (QC) on sequencing data was carried out. […] Raw data were aligned with TopHat 2 against mouse MM10 genome, and read count data were obtained using HTSeq, DESeq (Anders, S. & Huber, W. Genome Biol. 11, R106 (2010)), edgeR (Robinson, M. D., et al. Bioinformatics 26, 139-140 (2010)) and baySeq (Hardcastle, T. J. & Kelly, K. A. BMC Bioinformatics 11, 422 (2010)). […]

The structures appear in SMILES notation. Entries after “also recorded” stand apart in the source; their conditions may differ.

With `CC[C@H]1[C@@H](O)[C@@H]2[C@H](CC[C@]3(C)[C@@H]([C@H](C)CCC(=O)O)CC[C@@H]23)[C@@]2(C)CC[C@@H](O)C[C@@H]12` [OCA, (4R)-4-[(3R,5S,6R,7R,8S,9S,10S,13R,14S,17R)-6-Ethyl-3,7-dihydroxy-10,13-dimethyl-2,3,4,5,6,7,8,9,11,12,14,15,16,17-tetradecahydro-1H-cyclopenta[a]phenanthren-17-yl]pentanoic acid], the cocaine-induced locomotion result in the series on C57BL/6J mice [1] was “impaired”. In addition, in series [2], the clinical efficacy entry is listed as “clinical efficacy” and the safety profile entry is on record as “excellent safety profile”. Further, in series [3], the “EPSC amplitude in NAc medium spiny neurons” value is listed as “robust depression; also recorded: reduced”. In addition, in series [4], the body weight result is “No differences”. Further, the “cocaine CPP (preference for the cocaine-paired chamber, % CPP)” value in the series with C57BL/6J mice [5] is on record as “decreased; also recorded: reduced preference”. For the same molecule, the “cocaine CPP (preference for the cocaine-paired chamber, % CPP)” value in the series on C57BL/6J mice [5] (listed as 6-ECDCA) was “significantly reduced”.

With `C[C@H](CCC(=O)NCCS(=O)(=O)O)[C@H]1CC[C@H]2[C@@H]3[C@@H](O)[C@@H](O)[C@@H]4C[C@H](O)CC[C@]4(C)[C@H]3CC[C@]12C` [TβMCA, 5β-cholanic acid-3α,6β,7β-triol-N-[2-sulphoethyl]-amide], in the series on FXR, the FXR antagonist activity result was “potent FXR antagonist”.

Turning to `COC(=O)/C=C/c1cccc(N(Cc2ccc(-c3ccc(N(C)C)cc3)cc2)C(=O)C2CCCCC2)c1` [fexaramine], the “Lpl hepatic expression, increase relative to DIO controls” value in the series on Lipoprotein lipase (Lpl) was determined as 2.4 fold.
